Data set [1] has as its target T1, CYP2C9 (Homo sapiens, UniProt P11712). Put plainly: biochemical. Here is the method:
(§1) All incubations were performed in triplicate, and the mean values were utilized. The typical incubation systems contained 100 mM potassium phosphate buffer (pH 7.4), NADPH generating system (1 mM NADP^+, 10 mM glucose-6-phosphate, 1 U/mL of glucose-6-phosphate dehydrogenase, and 4 mM MgCl2), the appropriate concentration of HLMs, a corresponding probe substrate and hispidulin (or positive inhibitor for different probe reactions) in a final volume of 200 μL.
(§2) The concentration of succinic acid was 100 μM, and the positive inhibitor concentrations were as follows: 10 μM furafylline for CYP1A2, 1 μM ketoconazole for CYP3A4, 10 μM tranylcypromine for CYP2A6, 50 μM clomethiazole for CYP2E1, 10 μM quinidine for CYP2D6, 10 μM sulfaphenazole for CYP2C9, 50 μM tranylcypromine for CYP2C19, 5 μM montelukast for CYP2C8. Probe substrates, positive inhibitors (except for dextromethorphan and quinidine, which were dissolved in water), and succinic acid were dissolved in methanol, with a final concentration of 1% (v/v), and 1% neat methanol was added to the incubations without inhibitor. There was a 3 min preincubation period (at 37 °C) before the reaction was initiated by adding an NADPH-generating system. The reaction was terminated by adding a 100 μL acetonitrile (10% trichloroacetic acid for CYP2A6) internal standard mix, and the solution was placed on ice. The mixture was centrifuged at 12,000 rpm for 10 min, and an aliquot (50 μL) of supernatant was transferred for HPLC analysis. The instrument used in this study was Agilent 1260 series instrument with DAD and FLD detector, and the quantitative assay for the corresponding metabolites was performed as previously reported (Lang et al. [2017]; Zhang et al. [2017]).
(§3) Succinic acid (100 μM) was used to initially screen for its direct inhibitory effects towards different human CYP isoforms. […] Ki values were obtained by incubating various concentrations of different probe substrates (20–100 μM testosterone, 10–50 μM dextromethorphan, 5–20 μM diclofenac) in the presence of 0–50 μM succinic acid.
(§4) The enzyme kinetic parameters for the probe reaction were estimated from the best fit line, using least-squares linear regression of the inverse substrate concentration versus the inverse velocity (Lineweaver-Burk plots), and the mean values were used to calculate Vmax and Km. Inhibition data from the experiments that were conducted using multiple compound concentrations were represented by Dixon plots, and inhibition constant (Ki) values were calculated using non-linear regression according to the following equation: v=(VmaxS)/(Km(1+I/Ki)+S), where I is the concentration of the compound, Ki is the inhibition constant, S is the concentration of the substrate, and Km is the substrate concentration at half the maximum velocity (Vmax) of the reaction. The mechanism of the inhibition was inspected using the Lineweaver-Burk plots and the enzyme inhibition models. The data comparison was performed using Student’s t-test and performed using IBM SPSS statistics 20 (SPSS Inc.).

For data set [2], the target named is T2, CYP2D6 (Homo sapiens, UniProt P10635). Put plainly: biochemical. The procedure: as §1, §2, §3, §4
Data set [3] has as its target T3, CYP3A4 (Homo sapiens, UniProt P08684). As to the kind of experiment: biochemical. Here is the method:
as §1, §2, §3, §4

Data set [4] addresses T3, CYP3A4. Here is the method: (§5) To determine whether succinic acid could inhibit the activity of CYP3A4, 2D6, and 2C9 in a time-dependent manner, succinic acid (20 μM) was pre-incubated with HLMs (1 mg/mL) in the presence of an NADPH-generating system for 30 min at 37 °C. After incubation, an aliquot (20 μL) was transferred to another incubation tube (final volume 200 μL) containing an NADPH-generating system and probe substrates whose final concentrations were approximate to Km. Then, further incubations were performed to measure the residual activity. After being incubated for 0, 5, 10, 15, and 30 min, the reactions were terminated by adding a 100 μL acetonitrile internal standard mix and then placed on ice; the corresponding metabolites were determined by HPLC.
To determine the KI and Kinact values for the inactivation of CYP3A4, the incubations were conducted using higher probe substrate concentrations (approximately 4-fold Km values) and various concentrations of succinic acid (0–50 μM) after different preincubation times (0–30 min), with a two-step incubation scheme, as described above.

The target in data set [5] is T1, CYP2C9. To be noted: succinic acid 20 μM, 0–30 min. Here is the method: as §5
Data set [6] deals with T2, CYP2D6. To be noted: succinic acid 20 μM, 0–30 min. The procedure: as §5

Molecules are shown by their SMILES.

T1 sequence (P11712 whole entry): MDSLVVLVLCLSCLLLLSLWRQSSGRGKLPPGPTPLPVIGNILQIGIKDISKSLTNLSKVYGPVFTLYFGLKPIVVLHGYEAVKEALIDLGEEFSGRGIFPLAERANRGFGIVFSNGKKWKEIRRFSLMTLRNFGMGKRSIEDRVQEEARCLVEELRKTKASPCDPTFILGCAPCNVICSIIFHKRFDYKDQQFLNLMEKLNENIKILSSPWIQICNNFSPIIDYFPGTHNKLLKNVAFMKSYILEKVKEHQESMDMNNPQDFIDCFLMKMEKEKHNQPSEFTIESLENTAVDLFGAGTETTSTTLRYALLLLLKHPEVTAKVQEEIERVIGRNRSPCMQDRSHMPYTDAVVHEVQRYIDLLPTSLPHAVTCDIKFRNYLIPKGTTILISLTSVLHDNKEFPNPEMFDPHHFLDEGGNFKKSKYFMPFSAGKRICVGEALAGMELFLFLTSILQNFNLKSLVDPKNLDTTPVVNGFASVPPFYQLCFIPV
T3 sequence (P08684 whole entry): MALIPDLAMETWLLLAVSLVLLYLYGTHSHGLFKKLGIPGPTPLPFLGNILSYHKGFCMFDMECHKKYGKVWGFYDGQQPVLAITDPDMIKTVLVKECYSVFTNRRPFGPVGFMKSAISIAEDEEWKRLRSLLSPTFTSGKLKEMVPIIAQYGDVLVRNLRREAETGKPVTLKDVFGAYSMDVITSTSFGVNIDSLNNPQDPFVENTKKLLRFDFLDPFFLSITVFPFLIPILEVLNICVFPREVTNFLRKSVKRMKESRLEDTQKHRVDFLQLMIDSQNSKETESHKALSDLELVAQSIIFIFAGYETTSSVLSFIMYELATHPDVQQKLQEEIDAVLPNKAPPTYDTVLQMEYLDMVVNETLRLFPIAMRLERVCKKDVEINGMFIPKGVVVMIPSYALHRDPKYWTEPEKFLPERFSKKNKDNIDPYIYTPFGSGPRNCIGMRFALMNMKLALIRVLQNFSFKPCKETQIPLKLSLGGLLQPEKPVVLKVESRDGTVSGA
T2 sequence (P10635 whole entry): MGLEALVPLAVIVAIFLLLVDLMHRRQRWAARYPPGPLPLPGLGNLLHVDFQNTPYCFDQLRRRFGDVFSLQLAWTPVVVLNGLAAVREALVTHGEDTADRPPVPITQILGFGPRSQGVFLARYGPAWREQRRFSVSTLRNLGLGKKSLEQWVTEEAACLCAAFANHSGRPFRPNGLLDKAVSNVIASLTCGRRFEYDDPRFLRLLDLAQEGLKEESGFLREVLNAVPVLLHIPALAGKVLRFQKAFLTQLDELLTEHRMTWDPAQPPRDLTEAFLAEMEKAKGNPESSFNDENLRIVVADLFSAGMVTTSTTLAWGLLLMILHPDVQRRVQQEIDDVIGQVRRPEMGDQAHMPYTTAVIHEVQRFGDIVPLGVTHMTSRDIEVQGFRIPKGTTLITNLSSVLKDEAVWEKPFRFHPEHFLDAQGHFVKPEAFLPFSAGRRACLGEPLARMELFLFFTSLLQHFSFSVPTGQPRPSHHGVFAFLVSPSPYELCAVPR

A word on the IC50: it is the concentration that inhibits the measured activity by half. A lower IC50 goes with greater potency in that assay. A word on the Ki: it is the dissociation constant of the complex between target and ligand, obtained from inhibition or displacement. As to `O=C(O)CCC(=O)O` [succinic acid, Succinic acid], the concentration for half-maximal inhibition (IC50) was 19.6 µM on CYP2C9 [1], 14.5 µM on CYP2D6 [2] and 12.8 µM against CYP3A4 [3]. In addition, the results for the Ki on CYP2C9 [1], at CYP2D6 [2] and on CYP3A4 [3] were 9.48 µM, 7.4 µM and 6.18 µM, respectively. At CYP2C9 [1] (pooled HLM), the “inhibition model CYP2C9 (Lineweaver-Burk plots)” value was “competitive”. The “inhibition model CYP2D6 (Lineweaver-Burk plots)” value against CYP2D6 [2] (microsomes) is recorded as “competitive”. Also, at CYP3A4 [3] (pooled HLM), the “inhibition model CYP3A4 (Lineweaver-Burk plots)” value was “non-competitive”. In addition, the “time dependence of CYP3A4 inhibition” value at CYP3A4 [4] (succinic acid 20 μM, 0–30 min) is given as “time-dependent”. Besides, the “activity of CYP3A4 (decreased to) after incubating” value on CYP3A4 [4] (succinic acid 20 μM, 30 min incubation, HLMs with NADPH) was determined as 26.65%. In addition, the “CYP3A4 inactivated by succinic acid” value at CYP3A4 [4] (suggested from Kinact) is “about 5.1%”. Besides, on CYP2C9 [5], the “effect of incubation time on CYP2C9 activity” value is reported as “not affected by the incubation time”. Also, the “effect of incubation time on CYP2D6 activity” value at CYP2D6 [6] is given as “not affected by the incubation time”.

Values taken from paper PMC7751394, “Succinic acid inhibits the activity of cytochrome P450 (CYP450) enzymes” (Pharmaceutical Biology, 2020).
